Here are results for six compounds from ChEMBL document CHEMBL4342483, “Codrug Approach for the Potential Treatment of EML4-ALK Positive Lung Cancer” (ACS Med Chem Lett, 2020).

A short description of data set [1]: Half life in phosphate buffer and DMSO supplemented with 4% bovine serum albumin at pH 7.4 by HPLC analysis. The following applies: phosphate buffer and DMSO with 4% bovine serum albumin. The data set is classed as physicochemical.
A short description of data set [2]: Half life in phosphate buffer and DMSO supplemented with 4% bovine serum albumin at pH 6.5 by HPLC analysis. To be noted: phosphate buffer and DMSO with 4% bovine serum albumin. The data set is classed as physicochemical.
The nature of data set [3]: Hydrolytic stability in phosphate buffer and DMSO supplemented with 4% bovine serum albumin assessed as rate constant at pH 6.5 by HPLC analysis.
Data set [4] in a line: Drug degradation in rat plasma assessed as compound hydrolysis with first order rate constant. The data set is classed as ADME, cell-free.
Data set [5] can be described thus: Half life in rat plasma. The data set is classed as ADME, cell-free.
Data set [6] in a line: Hydrolytic stability in phosphate buffer and DMSO supplemented with 4% bovine serum albumin assessed as rate constant at pH 7.4 by HPLC analysis.
Data set [7] can be described thus: Cytotoxicity against EML4-ALK-positive human CCL185IG cells assessed as cell growth inhibition by Chou-Talalay method. The data set is classed as functional.
Data set [8] relates to A549. As to the kind of experiment: Cytotoxicity against ALK-negative human A549 cells assessed as cell growth inhibition by Chou-Talalay method. The data set is classed as functional.
In data set [9] the test system is A549. As to the kind of experiment: Cytotoxicity against ALK-negative human A549 cells harboring wild type PI3KCA and CDKN2A and KRAS mutations assessed as cell growth inhibition measured after 72 hrs by MTT assay. The data set is classed as functional. The following applies: A549, 72 h.
Data set [10] has as its target ALK tyrosine kinase receptor (Homo sapiens) (UniProt Q9UM73). The following applies: 500 nM.
Description: Inhibition of ALK-mediated STAT3 phosphorylation in EML4-ALK-positive human CCL185IG cells at 500 nM measured after 24 hrs by Western blot analysis
A short description of data set [11]: Cytotoxicity against EML4-ALK-positive human CCL185IG cells harboring wild type PI3KCA and CDKN2A and KRAS mutations assessed as cell growth inhibition measured after 72 hrs by MTT assay. The data set is classed as functional.
The target of data set [12] is ALK tyrosine kinase receptor (Homo sapiens) (UniProt Q9UM73). To be noted: 500 nM. The source holds these as a separate data set.
Description: Inhibition of ALK-mediated STAT3 phosphorylation in EML4-ALK-positive human CCL185IG cells at 500 nM measured after 24 hrs in presence of pictilisib by Western blot analysis
The nature of data set [13]: Half life in phosphate buffer at pH 6.4 and d6-DMSO (1:1) by kinetic time-course NMR method. The data set is classed as physicochemical. To be noted: phosphate buffer and d6-DMSO (1:1).
Data set [14] can be described thus: Prodrug conversion in phosphate buffer at pH 6.8 and d6-DMSO (1:1) assessed as rate constant for release of active compound mimetics by kinetic time-course NMR method. The data set is classed as ADME.
Data set [15] can be described thus: Prodrug conversion in phosphate buffer at pH 7.4 and d6-DMSO (1:1) assessed as rate constant for release of active compound mimetics by kinetic time-course NMR method. The data set is classed as ADME.
A short description of data set [16]: Half life in phosphate buffer at pH 7.4 and d6-DMSO (1:1) by kinetic time-course NMR method. The following applies: phosphate buffer and d6-DMSO (1:1). The data set is classed as physicochemical.
Data set [17] in a line: Half life in phosphate buffer at pH 6.8 and d6-DMSO (1:1) by kinetic time-course NMR method. The data set is classed as physicochemical. The following applies: phosphate buffer and d6-DMSO (1:1).
Data set [18] in a line: Prodrug conversion in phosphate buffer at pH 6.4 and d6-DMSO (1:1) assessed as rate constant for release of active compound mimetics by kinetic time-course NMR method. The data set is classed as ADME.
Data set [19] can be described thus: Drug degradation in rat plasma assessed as compound hydrolysis with zero order rate constant. The data set is classed as ADME, cell-free.
A short description of data set [20]: Synergistic growth inhibition of EML4-ALK-positive human CCL185IG cells assessed as combination index at compound:ceritinib concentration ratio of 1:1 and fractional effect of 0.25 in presence of ceritinib by Chou-Talalay method. The data set is classed as functional.
Data set [21] concerns A549. Nature of the data set: Synergistic growth inhibition of ALK-negative human A549 cells assessed as combination index at compound:ceritinib concentration ratio of 1:1 and fractional effect of 0.25 in presence of ceritinib by Chou-Talalay method. The data set is classed as functional.
For data set [22], the system named is A549. Nature of the data set: Synergistic growth inhibition of ALK-negative human A549 cells assessed as combination index at compound:ceritinib concentration ratio of 1:1 and fractional effect of 0.5 in presence of ceritinib by Chou-Talalay method. The data set is classed as functional.
Data set [23] in a line: Synergistic growth inhibition of EML4-ALK-positive human CCL185IG cells assessed as combination index at compound:ceritinib concentration ratio of 1:1 and fractional effect of 0.5 in presence of ceritinib by Chou-Talalay method. The data set is classed as functional.
Data set [24] deals with A549. As to the kind of experiment: Synergistic growth inhibition of ALK-negative human A549 cells assessed as combination index at compound:ceritinib concentration ratio of 1:1 and fractional effect of 0.76 in presence of ceritinib by Chou-Talalay method. The data set is classed as functional.
A short description of data set [25]: Synergistic growth inhibition of EML4-ALK-positive human CCL185IG cells assessed as combination index at compound:ceritinib concentration ratio of 1:1 and fractional effect of 0.96 in presence of ceritinib by Chou-Talalay method. The data set is classed as functional.
Data set [26] deals with A549. Nature of the data set: Synergistic growth inhibition of ALK-negative human A549 cells assessed as combination index at compound:ceritinib concentration ratio of 1:1 and fractional effect of 0.96 in presence of ceritinib by Chou-Talalay method. The data set is classed as functional.
Data set [27] can be described thus: Synergistic growth inhibition of EML4-ALK-positive human CCL185IG cells assessed as combination index at compound:ceritinib concentration ratio of 1:1 and fractional effect of 0.76 in presence of ceritinib by Chou-Talalay method. The data set is classed as functional.

The source made the active and inactive calls. No cut-off for these calls is given here.

ALK tyrosine kinase receptor (Homo sapiens), sequence (Q9UM73 19-1620 limits assumed): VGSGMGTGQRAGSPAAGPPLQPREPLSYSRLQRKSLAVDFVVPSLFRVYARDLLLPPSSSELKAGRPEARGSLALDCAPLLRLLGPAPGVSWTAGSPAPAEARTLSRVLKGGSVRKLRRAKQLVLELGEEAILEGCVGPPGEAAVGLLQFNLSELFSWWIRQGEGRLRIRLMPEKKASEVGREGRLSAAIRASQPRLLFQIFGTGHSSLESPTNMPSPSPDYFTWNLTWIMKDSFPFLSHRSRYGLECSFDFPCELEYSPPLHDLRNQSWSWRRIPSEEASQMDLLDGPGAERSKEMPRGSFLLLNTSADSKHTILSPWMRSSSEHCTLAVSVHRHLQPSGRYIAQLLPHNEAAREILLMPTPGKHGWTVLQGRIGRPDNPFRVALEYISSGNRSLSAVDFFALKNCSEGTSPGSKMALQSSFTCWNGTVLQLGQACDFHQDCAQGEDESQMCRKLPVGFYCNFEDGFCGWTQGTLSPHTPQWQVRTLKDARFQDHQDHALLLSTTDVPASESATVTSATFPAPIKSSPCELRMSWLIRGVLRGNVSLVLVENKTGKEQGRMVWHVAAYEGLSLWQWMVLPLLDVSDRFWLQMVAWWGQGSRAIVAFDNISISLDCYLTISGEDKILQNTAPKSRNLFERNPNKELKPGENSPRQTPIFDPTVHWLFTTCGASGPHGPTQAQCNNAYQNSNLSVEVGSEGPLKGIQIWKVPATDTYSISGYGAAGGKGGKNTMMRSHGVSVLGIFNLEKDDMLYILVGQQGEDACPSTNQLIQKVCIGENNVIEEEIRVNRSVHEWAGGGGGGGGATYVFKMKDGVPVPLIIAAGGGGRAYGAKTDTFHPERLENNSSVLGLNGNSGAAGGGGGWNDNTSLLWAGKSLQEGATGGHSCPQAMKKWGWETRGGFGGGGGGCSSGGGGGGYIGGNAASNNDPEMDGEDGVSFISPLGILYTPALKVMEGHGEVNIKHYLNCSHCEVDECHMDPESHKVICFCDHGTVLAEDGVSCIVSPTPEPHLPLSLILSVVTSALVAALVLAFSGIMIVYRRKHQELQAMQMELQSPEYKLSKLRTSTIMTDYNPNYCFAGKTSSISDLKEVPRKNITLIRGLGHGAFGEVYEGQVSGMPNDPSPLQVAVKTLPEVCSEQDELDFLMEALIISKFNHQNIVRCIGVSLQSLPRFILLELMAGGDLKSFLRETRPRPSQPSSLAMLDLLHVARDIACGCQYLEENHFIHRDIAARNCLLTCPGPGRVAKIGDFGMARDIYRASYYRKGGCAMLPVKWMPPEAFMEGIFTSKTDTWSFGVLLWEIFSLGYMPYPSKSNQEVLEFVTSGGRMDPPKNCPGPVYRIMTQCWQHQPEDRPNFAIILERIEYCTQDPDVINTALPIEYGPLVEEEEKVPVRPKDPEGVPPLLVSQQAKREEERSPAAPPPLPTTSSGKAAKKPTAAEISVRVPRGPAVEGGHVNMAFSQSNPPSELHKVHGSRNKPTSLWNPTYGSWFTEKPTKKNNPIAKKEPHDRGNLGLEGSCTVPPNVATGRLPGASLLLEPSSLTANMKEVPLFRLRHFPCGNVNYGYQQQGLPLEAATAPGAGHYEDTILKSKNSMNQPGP

Take `Cc1cc(Nc2ncc(Cl)c(Nc3ccccc3S(=O)(=O)C(C)C)n2)c(OC(C)C)cc1C1CCN(C(=O)OC(C)OC(=O)CC(N)CC(=O)n2ncc3c(-c4nc(N5CCOCC5)c5sc(CN6CCN(S(C)(=O)=O)CC6)cc5n4)cccc32)CC1` (configuration not stated): the half-life in [1] was 456 min; in data set [2], 720 min; in [5] it was 69 min. Also, the K in [3] came to 0.058 h⁻¹; in data set [4], 0.01 min⁻¹; in [6] it was 0.091 h⁻¹.
With `Cc1cc(Nc2ncc(Cl)c(Nc3ccccc3S(=O)(=O)C(C)C)n2)c(OC(C)C)cc1C1CCN(C(=O)OC(C)OC(=O)[C@@H](N)CC(=O)n2ncc3c(-c4nc(N5CCOCC5)c5sc(CN6CCN(S(C)(=O)=O)CC6)cc5n4)cccc32)CC1` (some centres not stated), the values for the half-life in [1], in data set [2] and in [5] were 1160 min, 2080 min and 38 min, respectively. Also, the figures for the K in [3], in data set [4] and in [6] were 0.02 h⁻¹, 0.018 min⁻¹ and 0.036 h⁻¹, respectively.
In the case of `Cc1cc(Nc2ncc(Cl)c(Nc3ccccc3S(=O)(=O)C(C)C)n2)c(OC(C)C)cc1C1CCNCC1` [CERITINIB], the figures for the D50 (in data set [7]; in the data set on A549 [8]) were 0.57 µM and 0.85 µM, respectively. The concentration for 50% growth inhibition (GI50) in the data set on A549 [9] was found to be 845 nM; in [11], 565 nM. The inhibition result in data set [10] and in [12] was “Active” throughout.
With `CC(OC(=O)C[C@H](N)C(=O)n1ncc2cc(Br)ccc21)OC(=O)N1CCC(c2ccccc2)CC1` (some centres not stated), the half-life in data set [13] is 278 min; in data set [16] it was 23.4 min; in data set [17], 42 min. Also, the K amounted to 0.84 h⁻¹ in [14], 1.37 h⁻¹ in data set [15] and 0.22 h⁻¹ in data set [18].
For the compound `Cc1cc(Nc2ncc(Cl)c(Nc3ccccc3S(=O)(=O)C(C)C)n2)c(OC(C)C)cc1C1CCN(C(=O)OC(C)OC(=O)C[C@H](N)C(=O)n2ncc3c(-c4nc(N5CCOCC5)c5sc(CN6CCN(S(C)(=O)=O)CC6)cc5n4)cccc32)CC1` (some centres not stated), the results for the half-life in data set [1], in data set [2] and in data set [5] were 444 min, 1160 min and 58 min, respectively. Besides, the results for the K in data set [3], in data set [19] and in [6] were 0.036 h⁻¹, 0.069 µM/s and 0.094 h⁻¹, respectively.
Turning to `CS(=O)(=O)N1CCN(Cc2cc3nc(-c4cccc5[nH]ncc45)nc(N4CCOCC4)c3s2)CC1` [PICTILISIB], the D50 was 1.12 µM in data set [7] and 1.22 µM in the data set on A549 [8]. Further, the CI in [20] was found to be 0.52; in the data set on A549 [21], 0.95; with A549 [22], 0.72; in [23], 0.37; in the data set on A549 [24], 0.55; in data set [25] it was 0.24. The CI amounted to 0.35 in the data set on A549 [26] and 0.3 in data set [27]. The GI50 in the data set with A549 [9] came out at 1220 nM; in data set [11] it was 1180 nM.
